This is an account of results in patent US7919517B2, “Indazole derivatives” (Kyowa Hakko Kirin Co., Ltd., priority 2003, dated 2011).

Type in all cases: cell-based
In test [1] the test system is human chronic myeloid leukemia cell line K562. The test is described as follows: Cytostatic activity on leukemia cell line K562 (WST-1). Conditions: 72 hours, K562 cells; for inhibition at 10 µM: Homo sapiens, 10 μmol/L, read-out: cytostatic rate K562 (%) (10 μmol/L). As to the method: (§1) The cytostatic rates of a test compound on human acute myeloid leukemia cell lines MV-4-11 and ML-1, and human chronic myeloid leukemia cell line K562 were determined in the following manner.
(§2) Each cell was cultured using Roswell Park Memorial Institute's Medium (RPMI) 1640 (Gibco, Catalog No. 11875-093) containing 10% fetal bovine serum (Gibco, Catalog No. 10437-028) and 1% penicillin/streptomycin (1:1) (Gibco, Catalog No. 15140-122). Each 80 μL of the MV-4-11 cell having a concentration of 7.5×10^4 cells/mL (or the ML-1 cell or K562 cell having a concentration of 2.5×10^4 cells/mL) was inoculated to wells of a TC MICROWELL 96U plate (Nalge Nunc International, Catalog No. 163320) and was cultured in a 5% carbon dioxide gas incubator at 37° C. for 4 hours. As a blank, only RPMI medium (80 μL) was added to a well. Each 20 μL of a solution of the test compound in dimethyl sulfoxide (DMSO) which was prepared to make the final concentration to 10 μmol/L, was added to the MV-4-11 cell, ML-1 cell and K562 cell, respectively. Each 20 μL of DMSO was added to the control well and the blank well to […]. After adding the test compound, the cells were incubated in a 5% carbon dioxide gas incubator at 37° C. for 72 hours. After adding 20 μL of WST-1 reagent {4-[3-(4-iodophenyl)-2-(4-nitrophenyl)-2H-5-tetrazolio]-1,3-benzene disulfonate sodium salt} (Roche Diagnostics K.K., Catalog No. 1644807) diluted to 50% with RPMI medium, the cells were further incubated at 37° C. for 2 hours. Then, the absorbances at 450 nm (reference wavelength: 690 nm) were determined with a microplate spectrophotometer SPECTRA max 340PC (Molecular Devices Corporation). The relative growth (%) of a well to which the test compound had been added was determined while setting the absorbance of a well to which not the test compound but DMSO alone had been added (control) at 100% and that of a well containing RPMI medium alone at 0%. The cytostatic rate (%) of the test compound was determined by subtracting the calculated relative growth from 100.
(In general: Tetrazolium dyes change colour on reduction, which living cells bring about.)

Test [2] has as its system human acute myeloid leukemia cell line MV-4-11. The test is described as follows: Cytostatic activity on leukemia cell line MV-4-11 (WST-1). The note with it: 72 hours, MV-4-11 cells; for inhibition at 10 µM: Homo sapiens, MV4-11, 10 μmol/L, read-out: cytostatic rate MV-4-11 (%) (10 μmol/L). As to the method:
as §1, §2

The test system of test [3] is human acute myeloid leukemia cell line ML-1. Put plainly: Cytostatic activity on leukemia cell line ML-1 (WST-1). Conditions: 72 hours, ML-1 cells; for inhibition at 10 µM: Homo sapiens, ML1, 10 μmol/L, read-out: cytostatic rate ML-1 (%) (10 μmol/L). As to the method:
as §1, §2

Test [4] deals with human colon cancer cell line Colo205. The test is described as follows: Cytostatic activity on solid carcinoma cell line Colo205 (WST-1). The note with it: Homo sapiens, COLO 205; 10 μmol/L, 72 hours, Colo205 cells; read-out: cytostatic rate Colo205 (%) (10 μmol/L). As to the method:
as §2
The cytostatic rate of a test compound on the human colon cancer cell line Colo205 was determined in the following manner.
The cell was cultured using Roswell Park Memorial Institute's Medium (RPMI) 1640 (Gibco, Catalog No. 11875-093) containing 10% fetal bovine serum (Gibco, Catalog No. 10437-028) and 1% penicillin/streptomycin (1:1) (Gibco, Catalog No. 15140-122). Each 80 μL of the Colo205 having a concentration of 1.25×10^4 cells/mL was inoculated to wells of a TC MICROWELL 96F plate (Nalge Nunc International, Catalog No. 167008) and was cultured in a 5% carbon dioxide gas incubator at 37° C. for 24 hours. As a blank, only RPMI (80 μL) was added to a well. Each 20 μL of a solution of the test compound in DMSO which was prepared to make the final concentration to 10 μmol/L, was added to the Colo205 cell. Each 20 μL of DMSO was added to the control well and the blank well to […]. After adding the test compound, the cell was incubated in a 5% carbon dioxide gas incubator at 37° C. for 72 hours. The cytostatic rate (%) was then determined in the same way as the leukemia cell lines.

Molecules are shown by their SMILES. Where a name gives a salt, the structure may show the parent alone.

With `CN(C)C(=O)c1ccc(/C=C/c2n[nH]c3ccccc23)cc1` [Compound 1, (E)-N,N-Dimethyl-4-[2-(1H-indazol-3-yl)vinyl]benzamide], the values for the inhibition at 10 µM in test [1], in test [2] and in test [3] were 95%, 98% and 93%, respectively.
Turning to `CS(=O)(=O)Nc1cc(/C=C/c2n[nH]c3ccccc23)ccc1OCCN1CCOCC1` [Compound 7, (E)-N-{5-[2-(1H-Indazol-3-yl)vinyl]-2-(2-morpholinoethoxy)phenyl}methanesulfonamide], the inhibition at 10 µM in test [1] is 98%; in test [2], 97%; in test [3] it was 97%; in test [4], 89%.
Turning to `NC(=O)c1cc(/C=C/c2n[nH]c3ccccc23)ccc1OCCN1CCOCC1` [Compound 8, (E)-5-[2-(1H-Indazol-3-yl)vinyl]-2-(2-morpholinoethoxy)benzamide], the inhibition at 10 µM was 95% in test [1], 95% in test [2] and 84% in test [3].
Turning to `O=C(c1ccc(/C=C/c2n[nH]c3ccccc23)cc1)N1CCOCC1` [Compound 9, (E)-1{4-[2-(1H-indazol-3-yl)vinyl]benzoyl}morpholine], in test [1], the “cytostatic rate K562 (%) (10 μmol/L)” value amounted to 98%. In addition, the “cytostatic rate MV-4-11 (%) (10 μmol/L)” value in test [2] worked out at 91%. Besides, the “cytostatic rate ML-1 (%) (10 μmol/L)” value in test [3] came to 90%.
As for `O=C(NCCN1CCOCC1)c1ccc(/C=C/c2n[nH]c3ccccc23)cc1` [Compound 10, (E)-N-(2-morpholinoethyl)-4-[2-(1H-indazol-3-yl)vinyl]benzamide], the inhibition at 10 µM in test [1] was 99%; in test [2], 91%; in test [3], 83%; in test [4], 41%.
Consider `CC(=O)N1CCN(C(=O)c2ccc(/C=C/c3n[nH]c4ccccc34)cc2)CC1` [Compound 13, (E)-4-Acetyl-1-{4-[2-(1H-indazol-3-yl)vinyl]benzoyl}piperazine], for which the results for the inhibition at 10 µM in test [1], in test [2] and in test [3] were 99%, 94% and 90%, respectively.
As to `CNC(=O)c1ccc(/C=C/c2n[nH]c3ccccc23)cc1` [Compound 14, (E)-N-Methyl-4-[2-(1H-indazol-3-yl)vinyl]benzamide], the inhibition at 10 µM in test [1] turned out to be 98%; in test [2] it was 76%; in test [3], 84%.
Regarding `CCN(CC)C(=O)c1ccc(/C=C/c2n[nH]c3ccccc23)cc1` [Compound 15, (E)-N,N-Diethyl-4-[2-(1H-indazol-3-yl)vinyl]benzamide hydrochloride], the inhibition at 10 µM in test [1] was 100%; in test [2] it was 91%; in test [3], 94%; in test [4], 92%.
For the compound `Cl.O=C(c1ccc(/C=C/c2n[nH]c3ccccc23)cc1)N1CCC2(CC1)OCCO2` [Compound 16, (E)-4-ethylenedioxy-1-{4-[2-(1H-indazol-3-yl)vinyl]benzoyl}piperidine hydrochloride], the “cytostatic rate K562 (%) (10 μmol/L)” value in test [1] was determined as 94%. The “cytostatic rate MV-4-11 (%) (10 μmol/L)” value in test [2] came to 89%. In addition, the “cytostatic rate ML-1 (%) (10 μmol/L)” value in test [3] is listed as 97%.
Take `O=C(c1ccc(/C=C/c2n[nH]c3ccccc23)cc1)N1CCNCC1` [Compound 18, (E)-1-{4-[2-(1H-indazol-3-yl)vinyl]benzoyl}piperazine]: the inhibition at 10 µM in test [1] came out at 91%; in test [2], 98%; in test [3], 76%; in test [4], 85%.
In the same order, the values of `O=CN1CCN(C(=O)c2ccc(/C=C/c3n[nH]c4ccccc34)cc2)CC1` [Compound 19, (E)-4-{4-[2-(1H-indazol-3-yl)vinyl]benzoyl}piperazine-1-carbaldehyde] are 78%, 97%, 89% and 89%.
Regarding `CS(=O)(=O)Nc1cccc(/C=C/c2n[nH]c3ccccc23)c1` [Compound 27, (E)-N-{3-[2-(1H-indazol-3-yl)vinyl]phenyl}methanesulfonamide], the inhibition at 10 µM in test [1] amounted to 55%; in test [2] it was 94%; in test [3], 77%; in test [4] it was 80%.
On to `CCOC(=O)N1CCN(C(=O)c2ccc(/C=C/c3n[nH]c4ccccc34)cc2)CC1` [Compound 32, (E)-1-{4-[2-(1H-indazol-3-yl)vinyl]benzoyl}-4-ethoxycarbonylpiperazine], for which the inhibition at 10 µM turned out to be 86% in test [1], 94% in test [2], 80% in test [3] and 85% in test [4].
For the compound `CC(C)(C)C(=O)N1CCN(C(=O)c2ccc(/C=C/c3n[nH]c4ccccc34)cc2)CC1` [Compound 40, (E)-1-{4-[2-(1H-indazol-3-yl)vinyl]benzoyl}-4-(pivaloyl)piperazine], the inhibition at 10 µM in test [1] was determined as 96%; in test [2] it was 98%; in test [3] it was 67%; in test [4], 88%.
In the case of `O=C(c1ccc(/C=C/c2n[nH]c3ccccc23)cc1)N1CCN(C(=O)N2CCOCC2)CC1` [Compound 41, (E)-1-{4-[2-(1H-indazol-3-yl)vinyl]benzoyl}-4-(morpholinocarbonyl)piperazine], the inhibition at 10 µM was found to be 95% in test [1], 97% in test [2], 83% in test [3] and 90% in test [4].
As for `O=C(c1ccncc1)N1CCN(C(=O)c2ccc(/C=C/c3n[nH]c4ccccc34)cc2)CC1` [Compound 44, (E)-1-{4-[2-(1H-indazol-3-yl)vinyl]benzoyl}-4-(isonicotinoyl)piperazine], the inhibition at 10 µM in test [1] amounted to 92%; in test [2], 98%; in test [3], 85%; in test [4] it was 91%.
On to `O=C(c1ccccc1)N1CCN(C(=O)c2ccc(/C=C/c3n[nH]c4ccccc34)cc2)CC1` [Compound 46, (E)-1-{4-[2-(1H-indazol-3-yl)vinyl]benzoyl}-4-benzoylpiperazine], for which the inhibition at 10 µM in test [1] was 93%; in test [2], 98%; in test [3], 82%; in test [4], 87%.
For `CS(=O)(=O)N1CCN(C(=O)c2ccc(/C=C/c3n[nH]c4ccccc34)cc2)CC1` [Compound 47, (E)-1-{4-[2-(1H-indazol-3-yl)vinyl]benzoyl}-4-(methanesulfonyl)piperazine], the inhibition at 10 µM in test [1] was determined as 88%; in test [2] it was 97%; in test [3], 88%; in test [4], 91%.
Turning to `O=C(c1ccc(/C=C/c2n[nH]c3ccccc23)cc1)N1CCC(C(=O)N2CCOCC2)CC1` [Compound 51, (E)-1-{4-[2-(1H-indazol-3-yl)vinyl]benzoyl}-4-(morpholinocarbonyl)piperidine], the inhibition at 10 µM in test [1] amounted to 95%; in test [2] it was 98%; in test [3], 89%; in test [4] it was 90%.
As for `O=C(c1ccc(/C=C/c2n[nH]c3ccccc23)cc1)N1CCN(C(=O)C2CC2)CC1` [Compound 55, (E)-4-cyclopropanecarbonyl-1-{4-[2-(1H-indazol-3-yl)vinyl]benzoyl}piperazine], the inhibition at 10 µM amounted to 81% in test [1], 97% in test [2], 83% in test [3] and 89% in test [4].
